IC50 data for one molecule are collected here from ChEMBL document CHEMBL3352697, “Molecular modeling studies of atorvastatin analogues as HMGR inhibitors using 3D-QSAR, molecular docking and molecular dynamics simulations” (Bioorg Med Chem Lett, 2014).

For this test, the target named is T1, 3-hydroxy-3-methylglutaryl-coenzyme A reductase (Homo sapiens, UniProt P04035).
T1 sequence (P04035 whole entry): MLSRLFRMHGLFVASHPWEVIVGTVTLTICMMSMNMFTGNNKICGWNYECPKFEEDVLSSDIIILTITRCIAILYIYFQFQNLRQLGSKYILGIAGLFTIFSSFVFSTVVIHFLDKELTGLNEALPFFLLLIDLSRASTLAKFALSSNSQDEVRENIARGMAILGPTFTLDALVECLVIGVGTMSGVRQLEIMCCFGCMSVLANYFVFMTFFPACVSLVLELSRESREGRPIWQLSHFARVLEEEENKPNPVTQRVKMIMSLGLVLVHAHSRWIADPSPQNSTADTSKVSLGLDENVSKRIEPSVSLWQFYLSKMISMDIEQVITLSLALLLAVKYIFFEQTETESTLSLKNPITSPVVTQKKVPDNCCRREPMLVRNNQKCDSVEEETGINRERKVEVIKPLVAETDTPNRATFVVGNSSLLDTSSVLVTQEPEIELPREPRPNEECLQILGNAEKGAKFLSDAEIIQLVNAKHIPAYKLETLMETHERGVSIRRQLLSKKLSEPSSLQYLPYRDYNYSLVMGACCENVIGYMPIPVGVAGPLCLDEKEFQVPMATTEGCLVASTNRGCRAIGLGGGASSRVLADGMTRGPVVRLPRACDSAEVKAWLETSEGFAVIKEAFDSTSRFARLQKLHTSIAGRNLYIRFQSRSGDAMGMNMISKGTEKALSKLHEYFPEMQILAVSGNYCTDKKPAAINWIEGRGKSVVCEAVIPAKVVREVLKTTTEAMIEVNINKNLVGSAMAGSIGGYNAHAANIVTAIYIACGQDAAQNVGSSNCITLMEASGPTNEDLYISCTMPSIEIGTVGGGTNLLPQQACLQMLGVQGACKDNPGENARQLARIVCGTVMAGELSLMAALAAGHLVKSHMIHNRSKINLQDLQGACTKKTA
As to the kind of experiment: Inhibition of HMG-CoA reductase (unknown origin).

The term IC50 denotes the concentration needed to halve the response being measured. `CC(C)n1c(/C=C/[C@@H](O)C(F)(F)[C@@H](O)CC(=O)O)c(-c2ccc(F)cc2)c2ccccc21`: the IC50 worked out at 8.89 nM.
